Activity and IC50 data for 16 compounds are collected here from ChEMBL document CHEMBL1151699, “Synthesis and biological evaluation of guanylhydrazone coactivator binding inhibitors for the estrogen receptor” (Bioorg Med Chem, 2008).

Calls of active or inactive are those of the source. No cut-off for these calls is given here.

Assay [1] addresses Estrogen receptor alpha (Homo sapiens) (UniProt P03372). The assay can be described thus: Inhibition of estradiol-induced coactivator peptide SRC1 binding to estrogen receptor alpha expressed in human HEC1 cells at 20 uM after 24 hrs by beta-galactosidase based mammalian two-hybrid assay. Set-up: scale not given: the % may be the effect or the level left. The conditions noted are these: HEC-1.

The target in assay [2] is T1, Estrogen receptor (Homo sapiens, UniProt P03372).
T1 sequence (P03372 whole entry): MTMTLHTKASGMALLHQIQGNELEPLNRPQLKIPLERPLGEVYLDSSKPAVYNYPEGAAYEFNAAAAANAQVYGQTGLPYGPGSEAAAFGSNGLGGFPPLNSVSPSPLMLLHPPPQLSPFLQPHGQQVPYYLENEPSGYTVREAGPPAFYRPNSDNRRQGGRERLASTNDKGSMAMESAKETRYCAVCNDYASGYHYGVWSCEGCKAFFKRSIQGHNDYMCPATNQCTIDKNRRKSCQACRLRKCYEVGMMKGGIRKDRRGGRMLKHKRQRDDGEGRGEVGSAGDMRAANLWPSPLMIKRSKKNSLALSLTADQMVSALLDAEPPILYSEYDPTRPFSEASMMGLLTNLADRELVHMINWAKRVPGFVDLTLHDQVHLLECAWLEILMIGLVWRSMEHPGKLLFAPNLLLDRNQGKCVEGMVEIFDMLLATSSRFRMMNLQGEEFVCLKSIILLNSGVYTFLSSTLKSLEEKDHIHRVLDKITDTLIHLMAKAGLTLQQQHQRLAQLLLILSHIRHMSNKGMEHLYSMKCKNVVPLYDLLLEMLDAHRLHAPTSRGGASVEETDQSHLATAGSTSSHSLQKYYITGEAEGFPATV
The assay can be described thus: Inhibition of estradiol-induced coactivator peptide SRC1 binding to estrogen receptor alpha expressed in human HEC1 cells after 24 hrs by luciferase based mammalian two-hybrid assay. Type of assay: cell-based, HEC-1.

Assay [3] has as its target Estrogen receptor alpha (Homo sapiens) (UniProt P03372). The assay can be described thus: Antagonist activity at estrogen receptor alpha expressed in human HEC1 cells assessed as inhibition of estradiol-induced transcriptional activity at 20 uM after 24 hrs by beta-galactosidase reporter gene assay. Set-up: scale not given: the % may be the effect or the level left. The conditions noted are these: HEC-1. A general note: In a reporter assay the amount or activity of a reporter protein is the signal.

Assay [4] concerns the target T1, Estrogen receptor. The assay can be described thus: Inhibition of estradiol-induced coactivator peptide SRC binding to recombinant estrogen receptor by fluorescence polarization assay. Background: Fluorescence polarisation rises when a labelled molecule tumbles more slowly, as on binding a larger partner.
Assay [5] addresses Estrogen receptor alpha (Homo sapiens) (UniProt P03372). The assay can be described thus: Covalent binding affinity to estrogen receptor alpha assessed as change in molecular weight after 30 mins by electrospray ionization mass spectrometry.

As usually defined, the IC50 is the concentration that inhibits the measured activity by half. In the case of `N=C(N)N/N=C/C=C(\Cl)c1cccc2ccccc12`, the Activity in assay [1] and in assay [3] was 50% in each case. This compound also registered an IC50 in assay [2] of no less than 50 µM.
For `N=C(N)N/N=C/C1=C(C(F)(F)F)c2ccccc2CC1`, the Activity in assay [1] and in assay [3] was 50% each time.
In the case of `N=C(N)N/N=C/c1cccc2ccccc12`, the Activity in assay [1] and in assay [3] was 50% in each case. In addition, the IC50 in assay [2] is 11.5 µM.
Take `N=C(N)N/N=C/c1ccc2ccccc2c1`: the Activity in assay [1] and in assay [3] was 50% throughout. This compound showed a half-maximal inhibitory concentration (IC50) in assay [2] of 11.3 µM.
As to `Cc1cc(C)c2c(c1)C(Cl)=C(/C=N/NC(=N)N)CC2`, the Activity in assay [1] and in assay [3] was 50% throughout. The IC50 in assay [2] is 2.5 µM.
As for `CC(/C=N/NC(=N)N)=C(/Cl)c1ccccc1`, the IC50 in assay [4] is 37 µM; in assay [2], 2.6 µM. Moreover, the Activity in assay [1] and in assay [3] was 50% each time.
As to `CC1CC(/C=N/NC(=N)N)=C(Cl)c2ccccc21` (stereo not given), the Activity in assay [1] and in assay [3] was 50% each time. In assay [2], the 50% inhibitory concentration (IC50) was determined as 9.4 µM.
As to `COc1ccc2c(c1)CCC(/C=N/NC(=N)N)=C2Cl`, the Activity in assay [1] and in assay [3] was 50% in each case. Moreover, the IC50 in assay [2] turned out to be 2.1 µM.
On to `N=C(N)N/N=C/C1=C(Cl)c2ccccc2C1`, for which the Activity in assay [1] and in assay [3] was 50% each time. The same compound registered a 50% inhibitory concentration (IC50) in assay [2] of 6.8 µM.
Regarding `COC1=C(/C=N/NC(=N)N)CCc2ccccc21`, the Activity in assay [1] and in assay [3] was 50% in each case. In addition, the IC50 in assay [2] is no less than 50 µM.
For `C/C(=N\NC(=N)N)C1=C(Cl)c2ccccc2CC1`, the Activity in assay [1] and in assay [3] was 50% each time.
Take `N=C(N)N/N=C/C1=C(Cl)c2ccccc2CC1`: the values for the IC50 in assay [4] and in assay [2] were 11 µM and 3.6 µM, respectively. Moreover, the outcome in assay [5] was inactive. The Activity in assay [1] and in assay [3] was 50% each time.
Take `N=C(N)N/N=C/C1=C(Cl)c2ccccc2CCC1`: the IC50 in assay [4] turned out to be 16 µM; in assay [2] it was 4 µM. The Activity in assay [1] and in assay [3] was 50% in each case.
In the case of `N=C(N)N/N=C/C1=C(Br)c2ccccc2CC1`, the Activity in assay [1] and in assay [3] was 50% throughout. Moreover, the IC50 in assay [2] turned out to be 4.9 µM.
In the case of `N=C(N)N/N=C/C=C(\Cl)c1ccccc1`, the Activity in assay [1] and in assay [3] was 50% in each case. The compound also came in with an IC50 in assay [2] of 4.6 µM.
With `N=C(N)N/N=C/C1=C(Oc2ccccc2)c2ccccc2CC1`, the Activity in assay [1] and in assay [3] was 50% each time. The compound also yielded an IC50 in assay [2] of 5.9 µM.
